Measured values as given in patent US9844513B2, “Oral pharmaceutical composition” (Sigmoid Pharma Limited, priority 2007, dated 2017).
Where two headings read alike, the source gives them in different places.

What was measured:
[1] = cited from earlier work
[2] = system: DSS-induced colitis mice; experiment: DSS-induced colitis in mice (DSS 2.5% in drinking water); type: in vivo; settings: 8 mg DMOG every second day
Protocol: Colitis was induced in mice using DSS 2.5% in drinking water. DMOG mini-capsules of example 20 with two different coating were used, namely DSS-bead (0.25 mg—immediate release), and DSS-COAT-bead (DSS-COAT beads coated with 22% Surelease®—DMOG: 0.25 mg/day) and were compared to non-treated DSS-induced colitis mice and mice treated with 8 mg DMOG IP every second day. The minicapsules were prepared using the method described in Example 20 above.
As DMOG is known to increase the production of erythropoietin it is expected that in the presence of systemic DMOG that the packed cell volume would be increased. The packed cell volume (PCV) is a measurement of the proportion of blood that is made up of cells. The value is expressed as a percentage or fraction of cells in blood. The PCV rises when the number of red blood cells increases. […] Thus, it could be concluded that when administered within the intestinal or colonic lumen that it acts locally at low dose and negligible concentrations are systemically available.
Referring to FIG. 21, the disease activity index (DAI) is calculated as the sum of scores of weight loss, stool consistency and blood in feces. […] The minicapsules were prepared using the method described in Example 20 above.
A major symptom of DSS-induced colitis is weight loss. […] Likewise, when 0.25 mg DMOG is administered daily as colon-specific beads (DSS-COAT beads coated with 22% Surelease®—DMOG: 0.25 mg/day), the protective effect is pronounced. […] The minicapsules were prepared using the method described in Example 20 above.

[3] = system: antigen specific IgA and IgG; experiment: Antigen specific IgA and IgG in intestinal washes by ELISA after immunisation of mice; type: in vivo; settings: intestinal washes one week after booster
Protocol: FIG. 9 represents the immune response in mice immunised with minicapsules as described in Example 5 and Example 6. […] Mice were immunised on 3 consecutive days on week 0 followed by an identical series of booster immunisations at week 2. Intestinal washes were collected one week following the booster and antigen specific IgA and IgG was assessed by ELISA.

## COc1ccccc1OCCNCC(O)COc1cccc2[nH]c3ccccc3c12 (centres unmarked) [Carvedilol]
[1]; absorbed from the small intestine
  time to reach maximum plasma concentration: within two hours
[1]; colon
  relative absorption: ~7%
[1]; extensive first-pass metabolism
  absolute bioavailability: approximately 25%
[1]; ileum
  relative absorption: ~28%
[1]; in vivo
  half-life: 7 to 10 h
[1]; jejunum
  relative absorption: approximately 56%

## COC(=O)CNC(=O)C(=O)OC [DMOG, dimethyloxalglycine]
[2]; Day 7, IP
  colon length (colon shortening): significantly reduced colon shortening
  packed cell volume (PCV): increases the PCV
[2]; IP
  protective effect (weight loss) compared with non-treated DSS mice: significant protective effect
[2]; IP, 7 days
  Disease Activity Index (DAI): high DAI

B1: OVA in solution: Ovalbumin antigen given in solution, comparison group (protein, UniProt P01012 2-386, looked up)
Ovalbumin: GSIGAASMEFCFDVFKELKVHHANENIFYCPIAIMSALAMVYLGAKDSTRTQINKVVRFDKLPGFGDSIEAQCGTSVNVHSSLRDILNQITKPNDVYSFSLASRLYAEERYPILPEYLQCVKELYRGGLEPINFQTAADQARELINSWVESQTNGIIRNVLQPSSVDSQTAMVLVNAIVFKGLWEKAFKDEDTQAMPFRVTEQESKPVQMMYQIGLFRVASMASEKMKILELPFASGTMSMLVLLPDEVSGLEQLESIINFEKLTEWTSSNVMEERKIKVYLPRMKMEEKYNLTSVLMAMGITDVFSSSANLSGISSAESLKISQAVHAAHAEINEAGREVVGSAEAGVDAASVSEEFRADHPFLFCIKHIATNAVLFFGRCVSP
[3]
  titres of antigen specific IgG in the intestinal washes: highest responses
